Source: PubChem BioAssay AID1963984 (Molecular Pharmacology Branch, DTP, NCI, 2024)

Tested on: 233499-124-R-J3-PDC spheroids with HUVEC/MSC, viability
Assay: Anticancer human tumor 233499-124-R-J3-PDC patient-derived colon adenocarcinoma cell line growth inhibition [PI3K]
Conditions: for IC50: curve of first compound; for viability, T/C: stronger effect = lower value
Outline: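 Combination activity was assessed by viability in multicellular tumor spheroids carrying HUVEC and MSC components. Agents were tested with PI3K inhibitors from a Cmax-based top dose (or 10 microM) downward in half-log increments.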

[1] = second compound 0.0316 µM, first compound 0.0316 µM
[2] = second compound 0.0316 µM, first compound 0.1 µM
[3] = second compound 0.1 µM, first compound 0.0316 µM
[4] = second compound 0.1 µM, first compound 0.1 µM
[5] = second compound 0.316 µM, first compound 0.0316 µM
[6] = second compound 0.316 µM, first compound 0.1 µM
[7] = second compound 1 µM, first compound 0.0316 µM
[8] = second compound 1 µM, first compound 0.1 µM
[9] = second compound 3.16 µM, first compound 0.0316 µM
[10] = second compound 3.16 µM, first compound 0.1 µM
[11] = second compound 10 µM, first compound 0.0316 µM
[12] = second compound 10 µM, first compound 0.1 µM
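Further: spheroids exposed to agents for seven days before readout.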
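Wherever viability, T/C is given: percent viability relative to DMSO vehicle control taken as 100%.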

CC(=O)c1c(C)c2cnc(Nc3ccc(N4CCNCC4)cn3)nc2n(C2CCCC2)c1=O + Cc1nc(NC(=O)N2CCCC2C(N)=O)sc1-c1ccnc(C(C)(C)C(F)(F)F)c1
IC50 (second compound 0.0316 µM): > 100 nM
IC50 (second compound 0.1 µM): > 100 nM
IC50 (second compound 0.316 µM): 65.9 nM
IC50 (second compound 1 µM): 58.2 nM
IC50 (second compound 3.16 µM): 42 nM
IC50 (second compound 10 µM): < 0.316 nM
viability, T/C (second compound 0.0316 µM, first compound 0.000316 µM): 98.6%
viability, T/C (second compound 0.0316 µM, first compound 0.001 µM): 93.2%
viability, T/C (second compound 0.0316 µM, first compound 0.00316 µM): 65.5%
viability, T/C (second compound 0.0316 µM, first compound 0.01 µM): 79.9%
viability, T/C [1]: 99.6%
viability, T/C [2]: 79.1%
viability, T/C (second compound 0.1 µM, first compound 0.000316 µM): 90.2%
viability, T/C (second compound 0.1 µM, first compound 0.001 µM): 90.2%
viability, T/C (second compound 0.1 µM, first compound 0.00316 µM): 74.7%
viability, T/C (second compound 0.1 µM, first compound 0.01 µM): 98%
viability, T/C [3]: 83%
viability, T/C [4]: 54.5%
viability, T/C (second compound 0.316 µM, first compound 0.000316 µM): 77.7%
viability, T/C (second compound 0.316 µM, first compound 0.001 µM): 89.7%
viability, T/C (second compound 0.316 µM, first compound 0.00316 µM): 86.6%
viability, T/C (second compound 0.316 µM, first compound 0.01 µM): 75%
viability, T/C [5]: 58.5%
viability, T/C [6]: 45.3%
viability, T/C (second compound 1 µM, first compound 0.000316 µM): 79.5%
viability, T/C (second compound 1 µM, first compound 0.001 µM): 67.9%
viability, T/C (second compound 1 µM, first compound 0.00316 µM): 80.6%
viability, T/C (second compound 1 µM, first compound 0.01 µM): 70%
viability, T/C [7]: 74.9%
viability, T/C [8]: 28.3%
viability, T/C (second compound 3.16 µM, first compound 0.000316 µM): 53.3%
viability, T/C (second compound 3.16 µM, first compound 0.001 µM): 57.2%
viability, T/C (second compound 3.16 µM, first compound 0.00316 µM): 76.4%
viability, T/C (second compound 3.16 µM, first compound 0.01 µM): 37.5%
viability, T/C [9]: 61.8%
viability, T/C [10]: 28.2%
viability, T/C (second compound 10 µM, first compound 0.000316 µM): 27.8%
viability, T/C (second compound 10 µM, first compound 0.001 µM): 26.9%
viability, T/C (second compound 10 µM, first compound 0.00316 µM): 27.5%
viability, T/C (second compound 10 µM, first compound 0.01 µM): 34.6%
viability, T/C [11]: 36.9%
viability, T/C [12]: 28%

CNC(=O)c1ccc(N2C(=S)N(c3ccc(C#N)c(C(F)(F)F)c3)C(=O)C2(C)C)cc1F + Cc1nc(NC(=O)N2CCCC2C(N)=O)sc1-c1ccnc(C(C)(C)C(F)(F)F)c1
IC50 (second compound 0.0316 µM): 9800 nM
IC50 (second compound 0.1 µM): > 10000 nM
IC50 (second compound 0.316 µM): > 10000 nM
IC50 (second compound 1 µM): > 10000 nM
IC50 (second compound 3.16 µM): 4620 nM
IC50 (second compound 10 µM): < 31.6 nM
viability, T/C [1]: 101%
viability, T/C [2]: 107%
viability, T/C (second compound 0.0316 µM, first compound 0.316 µM): 80.8%
viability, T/C (second compound 0.0316 µM, first compound 1 µM): 100%
viability, T/C (second compound 0.0316 µM, first compound 3.16 µM): 102%
viability, T/C (second compound 0.0316 µM, first compound 10 µM): 49.1%
viability, T/C [3]: 111%
viability, T/C [4]: 72.8%
viability, T/C (second compound 0.1 µM, first compound 0.316 µM): 66%
viability, T/C (second compound 0.1 µM, first compound 1 µM): 84.1%
viability, T/C (second compound 0.1 µM, first compound 3.16 µM): 85.9%
viability, T/C (second compound 0.1 µM, first compound 10 µM): 73.2%
viability, T/C [5]: 95.8%
viability, T/C [6]: 100%
viability, T/C (second compound 0.316 µM, first compound 0.316 µM): 70.6%
viability, T/C (second compound 0.316 µM, first compound 1 µM): 88.3%
viability, T/C (second compound 0.316 µM, first compound 3.16 µM): 85.9%
viability, T/C (second compound 0.316 µM, first compound 10 µM): 56.2%
viability, T/C [7]: 105%
viability, T/C [8]: 70.3%
viability, T/C (second compound 1 µM, first compound 0.316 µM): 78.9%
viability, T/C (second compound 1 µM, first compound 1 µM): 61.5%
viability, T/C (second compound 1 µM, first compound 3.16 µM): 60.5%
viability, T/C (second compound 1 µM, first compound 10 µM): 51.3%
viability, T/C [9]: 59.1%
viability, T/C [10]: 51.1%
viability, T/C (second compound 3.16 µM, first compound 0.316 µM): 61.2%
viability, T/C (second compound 3.16 µM, first compound 1 µM): 54.5%
viability, T/C (second compound 3.16 µM, first compound 3.16 µM): 57%
viability, T/C (second compound 3.16 µM, first compound 10 µM): 37%
viability, T/C [11]: 24%
viability, T/C [12]: 34.6%
viability, T/C (second compound 10 µM, first compound 0.316 µM): 28.1%
viability, T/C (second compound 10 µM, first compound 1 µM): 31.8%
viability, T/C (second compound 10 µM, first compound 3.16 µM): 29.3%
viability, T/C (second compound 10 µM, first compound 10 µM): 19.6%

Cn1cnc2c(F)c(Nc3ccc(Br)cc3Cl)c(C(=O)NOCCO)cc21 + Cc1nc(NC(=O)N2CCCC2C(N)=O)sc1-c1ccnc(C(C)(C)C(F)(F)F)c1
IC50 (second compound 0.0316 µM): 198 nM
IC50 (second compound 0.1 µM): 87.6 nM
IC50 (second compound 0.316 µM): 87.9 nM
IC50 (second compound 1 µM): 24.9 nM
IC50 (second compound 3.16 µM): < 9.49 nM
IC50 (second compound 10 µM): < 9.49 nM
viability, T/C (second compound 0.0316 µM, first compound 0.00949 µM): 88.1%
viability, T/C (second compound 0.0316 µM, first compound 0.03 µM): 84.8%
viability, T/C (second compound 0.0316 µM, first compound 0.0949 µM): 57%
viability, T/C (second compound 0.0316 µM, first compound 0.3 µM): 47.3%
viability, T/C (second compound 0.0316 µM, first compound 0.949 µM): 52%
viability, T/C (second compound 0.0316 µM, first compound 3 µM): 37.3%
viability, T/C (second compound 0.1 µM, first compound 0.00949 µM): 86.8%
viability, T/C (second compound 0.1 µM, first compound 0.03 µM): 68%
viability, T/C (second compound 0.1 µM, first compound 0.0949 µM): 39%
viability, T/C (second compound 0.1 µM, first compound 0.3 µM): 45.9%
viability, T/C (second compound 0.1 µM, first compound 0.949 µM): 28.4%
viability, T/C (second compound 0.1 µM, first compound 3 µM): 20.2%
viability, T/C (second compound 0.316 µM, first compound 0.00949 µM): 64.2%
viability, T/C (second compound 0.316 µM, first compound 0.03 µM): 63.5%
viability, T/C (second compound 0.316 µM, first compound 0.0949 µM): 35.1%
viability, T/C (second compound 0.316 µM, first compound 0.3 µM): 57.2%
viability, T/C (second compound 0.316 µM, first compound 0.949 µM): 30.3%
viability, T/C (second compound 0.316 µM, first compound 3 µM): 32.6%
viability, T/C (second compound 1 µM, first compound 0.00949 µM): 88.5%
viability, T/C (second compound 1 µM, first compound 0.03 µM): 39.5%
viability, T/C (second compound 1 µM, first compound 0.0949 µM): 36.1%
viability, T/C (second compound 1 µM, first compound 0.3 µM): 27.8%
viability, T/C (second compound 1 µM, first compound 0.949 µM): 29.1%
viability, T/C (second compound 1 µM, first compound 3 µM): 19.6%
viability, T/C (second compound 3.16 µM, first compound 0.00949 µM): 32.8%
viability, T/C (second compound 3.16 µM, first compound 0.03 µM): 34%
viability, T/C (second compound 3.16 µM, first compound 0.0949 µM): 24.2%
viability, T/C (second compound 3.16 µM, first compound 0.3 µM): 11.5%
viability, T/C (second compound 3.16 µM, first compound 0.949 µM): 15.7%
viability, T/C (second compound 3.16 µM, first compound 3 µM): 8.72%
viability, T/C (second compound 10 µM, first compound 0.00949 µM): 22.3%
viability, T/C (second compound 10 µM, first compound 0.03 µM): 19.2%
viability, T/C (second compound 10 µM, first compound 0.0949 µM): 8.64%
viability, T/C (second compound 10 µM, first compound 0.3 µM): 5.65%
viability, T/C (second compound 10 µM, first compound 0.949 µM): 7.32%
viability, T/C (second compound 10 µM, first compound 3 µM): 7.06%
